This passage reports IC50 results from patent US8569344B2, “N-piperidinyl acetamide derivatives as calcium channel blockers” (Zalicus Pharmaceuticals Ltd., priority 2008, dated 2013).

The target in assay [1] is T1, human α1G T-type channels (Homo sapiens, UniProt O43497).
T1 construct: expressed in transfected cells; host or cells: HEK 293
The assay can be described thus: T-type calcium channel block, whole cell patch clamp in HEK cells (α1G). It counts as cell-based. The settings on record: HEK cells, patch clamp, mainly non-inactivated protocol; values above 10 μM shown as 10 μM, below 0.30 μM shown as 0.30 μM; read-out: T-type Calcium Channel Block α1G IC50.

Assay [2] deals with T2, human α1H T-type channels (Homo sapiens, UniProt O95180).
T2 construct: expressed in transfected cells; host or cells: HEK 293
T2 sequence (O95180 whole entry): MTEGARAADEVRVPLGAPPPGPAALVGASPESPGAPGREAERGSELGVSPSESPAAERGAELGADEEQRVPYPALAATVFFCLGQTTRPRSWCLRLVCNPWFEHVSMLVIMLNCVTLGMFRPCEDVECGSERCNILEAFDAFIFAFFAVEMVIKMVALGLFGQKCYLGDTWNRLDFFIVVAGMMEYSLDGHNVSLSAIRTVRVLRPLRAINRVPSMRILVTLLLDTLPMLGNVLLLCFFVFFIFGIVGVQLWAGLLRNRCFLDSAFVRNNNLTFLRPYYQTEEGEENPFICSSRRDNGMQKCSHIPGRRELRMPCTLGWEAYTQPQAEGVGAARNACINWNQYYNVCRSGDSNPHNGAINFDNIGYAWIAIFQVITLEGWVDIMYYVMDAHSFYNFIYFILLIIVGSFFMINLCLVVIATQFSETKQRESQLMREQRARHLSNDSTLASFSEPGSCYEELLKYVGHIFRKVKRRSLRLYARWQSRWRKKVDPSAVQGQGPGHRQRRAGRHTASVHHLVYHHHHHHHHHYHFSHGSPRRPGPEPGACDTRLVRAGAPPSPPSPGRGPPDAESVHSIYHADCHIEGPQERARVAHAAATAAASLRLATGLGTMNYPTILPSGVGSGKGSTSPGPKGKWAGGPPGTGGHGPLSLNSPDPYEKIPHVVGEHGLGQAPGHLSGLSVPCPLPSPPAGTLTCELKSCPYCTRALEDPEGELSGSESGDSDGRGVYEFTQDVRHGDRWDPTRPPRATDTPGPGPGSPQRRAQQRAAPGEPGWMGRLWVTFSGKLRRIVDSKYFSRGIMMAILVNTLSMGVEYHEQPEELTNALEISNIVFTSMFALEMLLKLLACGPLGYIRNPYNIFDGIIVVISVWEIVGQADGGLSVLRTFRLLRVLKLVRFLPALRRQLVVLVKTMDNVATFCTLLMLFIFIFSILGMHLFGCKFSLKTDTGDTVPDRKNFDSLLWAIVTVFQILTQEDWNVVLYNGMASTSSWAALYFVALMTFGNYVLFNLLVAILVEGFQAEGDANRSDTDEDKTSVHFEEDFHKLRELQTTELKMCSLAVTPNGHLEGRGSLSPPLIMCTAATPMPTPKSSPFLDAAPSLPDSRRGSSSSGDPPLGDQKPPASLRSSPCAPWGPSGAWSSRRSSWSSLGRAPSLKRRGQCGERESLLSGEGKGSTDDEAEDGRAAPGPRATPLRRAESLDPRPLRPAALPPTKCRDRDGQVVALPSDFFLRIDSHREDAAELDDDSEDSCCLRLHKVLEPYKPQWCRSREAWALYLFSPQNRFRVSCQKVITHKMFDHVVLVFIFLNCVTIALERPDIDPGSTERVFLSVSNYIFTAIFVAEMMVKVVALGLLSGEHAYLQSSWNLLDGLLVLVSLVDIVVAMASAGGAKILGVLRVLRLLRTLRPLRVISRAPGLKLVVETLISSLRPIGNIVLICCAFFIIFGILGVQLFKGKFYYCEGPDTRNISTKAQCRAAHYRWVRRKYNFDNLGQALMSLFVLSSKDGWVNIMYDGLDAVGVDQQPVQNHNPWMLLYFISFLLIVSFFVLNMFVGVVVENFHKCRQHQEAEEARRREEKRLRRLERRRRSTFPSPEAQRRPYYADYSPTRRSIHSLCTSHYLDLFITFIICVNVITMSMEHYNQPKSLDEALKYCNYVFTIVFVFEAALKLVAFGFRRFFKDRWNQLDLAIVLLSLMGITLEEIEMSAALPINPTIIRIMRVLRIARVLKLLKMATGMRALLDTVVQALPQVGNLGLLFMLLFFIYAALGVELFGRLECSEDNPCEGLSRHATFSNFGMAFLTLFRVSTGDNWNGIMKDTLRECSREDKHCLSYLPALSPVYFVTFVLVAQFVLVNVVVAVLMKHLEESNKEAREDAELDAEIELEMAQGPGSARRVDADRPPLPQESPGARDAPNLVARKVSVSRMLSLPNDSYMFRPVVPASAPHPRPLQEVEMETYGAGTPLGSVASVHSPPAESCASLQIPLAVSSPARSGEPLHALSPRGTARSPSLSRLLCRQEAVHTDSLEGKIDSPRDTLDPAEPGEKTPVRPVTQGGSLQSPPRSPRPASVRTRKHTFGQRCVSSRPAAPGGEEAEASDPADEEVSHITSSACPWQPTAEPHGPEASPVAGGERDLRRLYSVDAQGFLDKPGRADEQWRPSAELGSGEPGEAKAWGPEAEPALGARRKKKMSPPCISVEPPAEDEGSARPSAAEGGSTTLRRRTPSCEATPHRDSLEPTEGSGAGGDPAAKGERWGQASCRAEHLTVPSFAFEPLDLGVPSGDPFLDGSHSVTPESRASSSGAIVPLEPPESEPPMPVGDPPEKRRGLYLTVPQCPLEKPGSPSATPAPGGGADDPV
Kind of assay: T-type calcium channel block, whole cell patch clamp in HEK cells (α1H). It counts as cell-based. The settings on record: HEK cells, patch clamp, mainly non-inactivated protocol; values above 10 μM shown as 10 μM; read-out: T-type Calcium Channel Block α1H IC50.

For orientation: IC50 means the concentration that inhibits the measured activity by half.

T1 sequence (O43497 whole entry): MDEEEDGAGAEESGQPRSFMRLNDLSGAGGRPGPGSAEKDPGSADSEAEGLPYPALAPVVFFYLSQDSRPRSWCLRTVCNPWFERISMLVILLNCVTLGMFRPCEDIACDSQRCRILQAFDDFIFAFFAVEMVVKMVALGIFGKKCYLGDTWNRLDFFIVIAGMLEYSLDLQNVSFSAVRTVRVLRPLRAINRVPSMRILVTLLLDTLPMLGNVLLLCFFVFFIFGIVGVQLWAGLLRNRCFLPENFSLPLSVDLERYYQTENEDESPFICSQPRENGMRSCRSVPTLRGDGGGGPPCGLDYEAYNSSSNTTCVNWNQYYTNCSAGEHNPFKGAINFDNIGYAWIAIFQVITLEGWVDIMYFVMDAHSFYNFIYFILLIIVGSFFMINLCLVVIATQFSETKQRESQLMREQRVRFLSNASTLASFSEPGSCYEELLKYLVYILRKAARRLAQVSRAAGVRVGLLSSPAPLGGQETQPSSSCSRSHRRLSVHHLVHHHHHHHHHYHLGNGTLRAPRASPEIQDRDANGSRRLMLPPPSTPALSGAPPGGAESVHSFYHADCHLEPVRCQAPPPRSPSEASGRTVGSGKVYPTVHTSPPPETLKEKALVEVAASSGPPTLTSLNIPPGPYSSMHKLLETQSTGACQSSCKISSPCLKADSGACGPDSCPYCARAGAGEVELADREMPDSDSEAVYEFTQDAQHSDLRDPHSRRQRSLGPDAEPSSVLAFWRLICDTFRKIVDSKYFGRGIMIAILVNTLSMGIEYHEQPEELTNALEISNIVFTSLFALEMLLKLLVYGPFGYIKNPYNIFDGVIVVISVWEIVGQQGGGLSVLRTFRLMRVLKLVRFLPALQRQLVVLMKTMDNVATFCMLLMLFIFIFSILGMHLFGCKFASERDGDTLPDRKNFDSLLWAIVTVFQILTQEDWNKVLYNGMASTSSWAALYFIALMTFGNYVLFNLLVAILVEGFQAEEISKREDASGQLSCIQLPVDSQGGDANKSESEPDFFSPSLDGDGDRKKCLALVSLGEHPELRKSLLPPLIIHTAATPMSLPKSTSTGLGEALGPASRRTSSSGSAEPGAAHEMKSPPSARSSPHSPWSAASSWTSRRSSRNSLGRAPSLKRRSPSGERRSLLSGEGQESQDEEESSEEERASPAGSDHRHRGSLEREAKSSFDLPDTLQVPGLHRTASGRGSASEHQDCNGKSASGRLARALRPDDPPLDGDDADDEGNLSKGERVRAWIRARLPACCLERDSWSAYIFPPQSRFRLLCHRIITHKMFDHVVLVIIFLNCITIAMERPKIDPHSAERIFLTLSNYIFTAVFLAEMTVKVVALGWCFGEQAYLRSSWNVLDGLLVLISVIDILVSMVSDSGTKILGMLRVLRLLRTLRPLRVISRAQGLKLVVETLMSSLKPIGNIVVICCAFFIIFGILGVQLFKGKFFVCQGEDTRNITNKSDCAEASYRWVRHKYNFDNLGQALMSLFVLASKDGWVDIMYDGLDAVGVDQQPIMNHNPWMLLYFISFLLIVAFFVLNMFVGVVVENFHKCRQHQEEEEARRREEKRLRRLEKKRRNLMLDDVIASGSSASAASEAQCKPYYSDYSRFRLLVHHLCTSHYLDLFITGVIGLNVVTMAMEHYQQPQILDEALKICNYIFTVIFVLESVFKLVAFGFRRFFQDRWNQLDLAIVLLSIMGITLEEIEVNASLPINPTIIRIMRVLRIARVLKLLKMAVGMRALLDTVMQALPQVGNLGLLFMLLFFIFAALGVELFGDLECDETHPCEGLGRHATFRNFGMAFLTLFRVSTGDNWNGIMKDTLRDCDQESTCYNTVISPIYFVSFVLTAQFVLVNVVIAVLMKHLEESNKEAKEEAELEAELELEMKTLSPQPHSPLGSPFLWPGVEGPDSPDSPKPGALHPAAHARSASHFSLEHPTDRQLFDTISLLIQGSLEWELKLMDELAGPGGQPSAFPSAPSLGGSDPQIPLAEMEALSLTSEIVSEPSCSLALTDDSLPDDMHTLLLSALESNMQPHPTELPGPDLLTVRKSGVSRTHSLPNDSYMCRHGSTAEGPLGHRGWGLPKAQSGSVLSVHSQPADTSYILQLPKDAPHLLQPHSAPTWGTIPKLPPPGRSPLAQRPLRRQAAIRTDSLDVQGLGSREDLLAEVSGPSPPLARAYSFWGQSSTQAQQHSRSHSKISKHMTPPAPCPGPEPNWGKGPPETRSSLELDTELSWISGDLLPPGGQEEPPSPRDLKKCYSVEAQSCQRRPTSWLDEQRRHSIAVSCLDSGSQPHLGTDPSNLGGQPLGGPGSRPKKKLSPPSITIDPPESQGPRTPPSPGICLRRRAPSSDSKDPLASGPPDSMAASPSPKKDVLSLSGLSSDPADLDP

On to `CCCNC(=O)CN1CCC(CNC(=O)c2cc(C)cc(C)c2)CC1` [Compound 445, 3,5-dimethyl-N-((1-(2-oxo-2-(propylamino)ethyl)piperidin-4-yl)methyl)benzamide], for which the IC50 in assay [1] and in assay [2] was above 10000 nM throughout.

For the molecule `O=C(NCC1CCN(CC(=O)N2CCC[C@@H]2C(F)(F)F)CC1)c1cccc(Cl)c1` [Compound 507, (R)-3-chloro-N-((1-(2-oxo-2-(2-(trifluoromethyl)pyrrolidin-1-yl)ethyl)piperidin-4-yl)methyl) benzamide], the IC50 in assay [1] came to 2980 nM; in assay [2] it was 1480 nM.

As to `Cc1cc(C)cc(C(=O)NCC2CCN(CCNC(=O)C(C)(C)C)CC2)c1` [Compound 295, 3,5-dimethyl-N-((1-(2-pivalamidoethyl)piperidin-4-yl)methyl)benzamide], the IC50 was 1340 nM in assay [1] and 1260 nM in assay [2].

Turning to `O=C(NCC1CCN(CCNS(=O)(=O)C2CC2)CC1)c1cc(Cl)sc1Cl` [Compound 333, 2,5-dichloro-N-((1-(2-(cyclopropanesulfonamido)ethyl)piperidin-4-yl)methyl)thiophene-3-carboxamide], the IC50 in assay [1] was 800 nM; in assay [2], 2420 nM.

On to `CC1(NC(=O)CN2CCC(CNC(=O)c3cccc(C(F)(F)F)c3)CC2)CCC1` [Compound 479, N-((1-(2-(1-methylcyclobutylamino)-2-oxoethyl)piperidin-4-yl)methyl)-3-(trifluoromethyl)benzamide], for which the IC50 in assay [1] is below 300 nM; in assay [2], 150 nM.

Turning to `CC(C(=O)NC(C)(C)C(F)(F)F)N1CCC(CNC(=O)c2cc(F)cc(Cl)c2)CC1` (stereo not drawn) [Compound 547, 3-chloro-5-fluoro-N-((1-(1-oxo-1-(1,1,1-trifluoro-2-methylpropan-2-ylamino)propan-2-yl)piperidin-4-yl)methyl)benzamide], the IC50 in assay [1] was below 300 nM; in assay [2], 30 nM.

For `CC(C)(C)C(C)(O)C(=O)N1CCC(CNC(=O)c2cc(C(F)(F)F)cc(C(F)(F)F)c2)CC1` (stereo not drawn) [Compound 89, N-((1-(2-hydroxy-2,3,3-trimethylbutanoyl)piperidin-4-yl)methyl)-3,5-bis(trifluoromethyl)benzamide], the IC50 in assay [1] is 4100 nM; in assay [2] it was above 10000 nM.

In the case of `O=C(NC1CCCCC1)NC1(CN2CCC(CNC(=O)c3cc(C(F)(F)F)cc(C(F)(F)F)c3)CC2)CCCC1` [Compound 14, N-((1-((1-(3-cyclohexylureido)cyclopentyl)methyl)piperidin-4-yl)methyl)-3,5-bis(trifluoromethyl)benzamide], the IC50 in assay [1] was below 300 nM; in assay [2], 1170 nM.

In the case of `CC(C)(C)OC(=O)NC(CN1CCC(CC(=O)NCc2cc(Cl)cc(Cl)c2)CC1)C(C)(C)C` (stereo not drawn) [Compound 198, tert-butyl 1-(4-(2-(3,5-dichloro-benzylamino)-2-oxoethyl)piperidin-1-yl)-3,3-dimethylbutan-2-ylcarbamate], the IC50 turned out to be 400 nM in assay [1] and 1300 nM in assay [2].

In the case of `O=C(NCC1CCN(CCNC(=O)C2(C(F)(F)F)CCCC2)CC1)c1cc(C(F)(F)F)cc(C(F)(F)F)c1` [Compound 340, 3,5-bis(trifluoromethyl)-N-((1-(2-(1-(trifluoromethyl)cyclopentanecarbox-amido)ethyl)piperidin-4-yl)methyl) benzamide], the half-inhibitory concentration (IC50) is below 300 nM in assay [1] and 120 nM in assay [2].

Take `CCCNC(=O)NC1(CN2CCC(CNC(=O)c3cc(C(F)(F)F)cc(C(F)(F)F)c3)CC2)CCCC1` [Compound 13, N-((1-((1-(3-propylureido)cyclopentyl)methyl)piperidin-4-yl)methyl)-3,5-bis(trifluoromethyl)benzamide]: the IC50 in assay [1] was found to be 630 nM; in assay [2], 1870 nM.

For the molecule `O=C(NCC1CCN(CCNS(=O)(=O)C2CC2)CC1)c1cccc(Br)c1` [Compound 323, 3-bromo-N-((1-(2-(cyclopropanesulfonamido)ethyl)piperidin-4-yl)methyl)benzamide], the IC50 came to 1870 nM in assay [1] and 2660 nM in assay [2].

With `NC1(C(=O)NCCN2CCC(CNC(=O)c3cc(F)cc(C(F)(F)F)c3)CC2)CCCCC1` [Compound 570, N-((1-(2-(1-aminocyclohexanecarboxamido)ethyl)piperidin-4-yl)methyl)-3-fluoro-5-(trifluoromethyl)benzamide], the IC50 is 2060 nM in assay [1] and 2360 nM in assay [2].

In the case of `Cc1cc(C)cc(C(=O)NCC2CCN(CC(=O)NC3(C)CCC3)CC2)c1` [Compound 475, 3,5-dimethyl-N-((1-(2-(1-methylcyclobutylamino)-2-oxoethyl)piperidin-4-yl)methyl) benzamide], the figures for the IC50 in assay [1] and in assay [2] were below 300 nM and 170 nM, respectively.

Regarding `CC(C)(C)C(=O)NC1(CN2CCC(CNC(=O)c3cc(C(F)(F)F)cc(C(F)(F)F)c3)CC2)CC1` [Compound 361, N-((1-((1-pivalamidocyclopropyl)methyl)piperidin-4-yl)methyl)-3,5-bis(trifluoromethyl)benzamide], the results for the half-inhibitory concentration (IC50) in assay [1] and in assay [2] were 700 nM and 600 nM, respectively.

As for `O=C(CN1CCC(CNC(=O)c2cccc(F)c2)CC1)NC1CCCC1` [Compound 535, N-((1-(2-(cyclopentylamino)-2-oxoethyl)piperidin-4-yl)methyl)-3-fluorobenzamide], the IC50 in assay [1] worked out at 3620 nM; in assay [2] it was 2140 nM.

`O=C(CCC(F)(F)F)NCCN1CCC(CNC(=O)c2cccc(C(F)(F)F)c2)CC1` [Compound 313, N-((1-(2-(4,4,4-trifluorobutanamido)ethyl)piperidin-4-yl)methyl)-3-(trifluoromethyl)benzamide]: the IC50 in assay [1] is 6310 nM; in assay [2] it was 620 nM.

`CCCNC(=O)CN1CCC(CNC(=O)c2cc(F)cc(OC)c2)CC1` [Compound 447, 3-fluoro-5-methoxy-N-((1-(2-oxo-2-(propylamino)ethyl)piperidin-4-yl)methyl)benzamide]: the figures for the IC50 in assay [1] and in assay [2] were 9150 nM and 3080 nM, respectively.

As for `O=C(NCC1CCN(CCNS(=O)(=O)CCCF)CC1)c1cc(F)cc(C(F)(F)F)c1` [Compound 308, 3-fluoro-N-((1-(2-(3-fluoropropylsulfonamido)ethyl)piperidin-4-yl)methyl)-5-(trifluoromethyl)benzamide], the IC50 in assay [1] came out at 1230 nM; in assay [2], 880 nM.

As to `O=C(NCC1CCN(CCNC(=O)C2(C(F)(F)F)CCCC2)CC1)c1cc(F)cc(C(F)(F)F)c1` [Compound 341, 3-fluoro-5-(trifluoromethyl)-N-((1-(2-(1-(trifluoromethyl)cyclopentanecarbox-amido)ethyl)piperidin-4-yl)methyl) benzamide], the 50% inhibitory concentration (IC50) in assay [1] is below 300 nM; in assay [2], 120 nM.

Consider `CC(C)(C)OC(=O)NCCN1CCC(CNC(=O)c2ccc(Oc3ccccc3)cc2)CC1` [Compound 57, tert-buyl 2-(4-((4-phenoxybenzamido)methyl)piperidin-1-yl)ethylcarbamate], for which the IC50 in assay [1] is 1050 nM; in assay [2], above 10000 nM.

`CC(C)(C)NC(=O)CN1CCC(CNC(=O)c2cc(Br)cc(Br)c2)CC1` [Compound 384, 3,5-dibromo-N-((1-(2-(tert-buylamino)-2-oxoethyl)piperidin-4-yl)methyl)benzamide]: the IC50 was below 300 nM in assay [1] and 90 nM in assay [2].

With `CC(C(=O)NC(C)(C)C)N1CCC(CNC(=O)c2cc(F)cc(Cl)c2)CC1` (stereo not drawn) [Compound 546, N-((1-(1-(tert-butylamino)-1-oxo-propan-2-yl)piperidin-4-yl)methyl)-3-chloro-5-fluorobenzamide], the IC50 in assay [1] was below 300 nM; in assay [2], 130 nM.

As for `CC(C)(C)C(=O)NCCN1CCC(CNC(=O)c2cc(Cl)cc(Cl)c2)CC1` [Compound 298, 3,5-dichloro-N-((1-(2-pivalamidoethyl)piperidin-4-yl)methyl)benzamide], the IC50 in assay [1] was below 300 nM; in assay [2], 280 nM.

For the molecule `CCCNC(=O)CN1CCC(CNC(=O)c2cc(OC)cc(OC)c2)CC1` [Compound 448, 3,5-dimethoxy-N-((1-(2-oxo-2-(propylamino)ethyl)piperidin-4-yl)methyl)benzamide], the IC50 amounted to 9730 nM in assay [1] and 4640 nM in assay [2].

On to `CC(C)(C)c1ccc(C(=O)NCC2CCN(CCNS(=O)(=O)C3CC3)CC2)cc1` [Compound 238, 4-tert-butyl-N-((1-(2-(cyclopropanesulfonamido)ethyl)piperidin-4-yl)methyl)benzamide], for which the IC50 in assay [1] and in assay [2] was above 10000 nM throughout.

Take `CC(C)(C)S(=O)(=O)NCCN1CCC(CNC(=O)c2cccc(Cl)c2)CC1` [Compound 573, 3-chloro-N-((1-(2-(1,1-dimethylethylsulfonamido)ethyl)piperidin-4-yl)methyl)benzamide]: the concentration for half-maximal inhibition (IC50) amounted to 1270 nM in assay [1] and 1010 nM in assay [2].

Turning to `Cc1cc(F)cc(C(=O)NCC2CCN(CC(=O)N(C)C(C)(C)C)CC2)c1` [Compound 540, N-((1-(2-(tert-butyl(methyl)amino)-2-oxoethyl)piperidin-4-yl)methyl)-3-fluoro-5-methylbenzamide], the IC50 in assay [1] came to 1400 nM; in assay [2] it was 550 nM.

Take `COCC(COC)NC(=O)CN1CCC(CNC(=O)c2cc(C(F)(F)F)cc(C(F)(F)F)c2)CC1` [Compound 347, N-((1-(2-(1,3-dimethoxypropan-2-ylamino)-2-oxoethyl)piperidin-4-yl)methyl)-3,5-bis(trifluoromethyl) benzamide]: the results for the IC50 in assay [1] and in assay [2] were below 300 nM and 240 nM, respectively.

Take `CC(C)(C)ONC(=O)CN1CCC(CNC(=O)c2cc(C(F)(F)F)cc(C(F)(F)F)c2)CC1` [Compound 560, N-((1-(2-(tert-butoxyamino)-2-oxoethyl)piperidin-4-yl)methyl)-3,5-bis(trifluoromethyl)benzamide]: the IC50 in assay [1] amounted to 470 nM; in assay [2], 590 nM.
